In the supplement of paper PMC7108870:

Columns and labels:
HEK293sieSTAT3(Y640F) [1] = assay: drug sensitivity score (DSS), cytotoxicity CellTox Green (DSS (dimensionless)); higher = more cytotoxic; extreme values may be limits of the assay; conditions: 72 h; STAT3 variant: Y640F (constitutively active)
In short: (§1)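 HEK293 cells with a STAT3-dependent luciferase reporter, overexpressing either wild-type or mutant STAT3, were dispensed (20 μl at 100,000 cells/ml) into 384-well plates holding compounds acoustically pre-plated at 5 concentrations in 10-fold dilutions. The plates were kept for 72 hours at 37°C and 5% CO2, then CellTox Green fluorescence (485/520 nm) followed by CellTiter-Glo luminescence was read on a PHERAstar FS. Breeze was used to compute a drug sensitivity score from the dose-response curve area after normalisation to negative and positive control wells, and each value comes from one representative of two experiments.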

HEK293sieSTAT3(wt) [2] = assay: as above; conditions: 72 h; STAT3 variant: wild type
In short: as §1

HEK293sieSTAT3(Y640F) [3] = assay: drug sensitivity score (DSS), viability CellTiter-Glo (DSS (dimensionless)); higher = more growth inhibition; extreme values may be limits of the assay; conditions: 72 h; STAT3 variant: Y640F (constitutively active)
In short: as §1

HEK293sieSTAT3(wt) [4] = assay: as above; conditions: 72 h; STAT3 variant: wild type
In short: as §1

| Structure (SMILES) | drug sensitivity score (HEK293sieSTAT3(Y640F) [1]) | drug sensitivity score (HEK293sieSTAT3(wt) [2]) | drug sensitivity score (HEK293sieSTAT3(Y640F) [3]) | drug sensitivity score (HEK293sieSTAT3(wt) [4]) |
| --- | --- | --- | --- | --- |
| N[C@@H]1CCCN(c2c(/C=C3\SC(=O)NC3=O)cccc2-c2ccccc2)C1 [AZD1208] (top concentration tested 10000 nM) | 0 | 0 | 0 | 0 |
| Cc1cc(Nc2nc(N[C@@H](C)c3ncc(F)cn3)ncc2Cl)[nH]n1 [AZD1480] (top concentration tested 1000 nM) | 0.04 | 0.43 | 0 | 0.06 |
| CNC(=O)c1cccc(-c2ccc3c(N4CCOC[C@@H]4C)nc(N4CCOC[C@@H]4C)nc3n2)c1 [AZD2014] (top concentration tested 10000 nM) | 0 | 4.19 | 18 | 20.1 |
| COc1cc(CCc2cc(NC(=O)c3ccc(N4CC(C)NC(C)C4)cc3)n[nH]2)cc(OC)c1 (stereo not given) [AZD4547] (top concentration tested 1000 nM) | 0 | 0.01 | 1.23 | 0.43 |
| CN(C)C(=O)c1ccc(S(=O)(=O)c2ccc(NC(=O)[C@@](C)(O)C(F)(F)F)c(Cl)c2)cc1 [AZD7545] (top concentration tested 10000 nM) | 0 | 0 | 0.82 | 0.28 |
| NC(=O)Nc1cc(-c2cccc(F)c2)sc1C(=O)N[C@H]1CCCNC1 [AZD7762] (top concentration tested 1000 nM) | 4.24 | 7.16 | 14.9 | 16.8 |
| COc1ccc(-c2ccc3c(N4CCOC[C@@H]4C)nc(N4CCOC[C@@H]4C)nc3n2)cc1CO [AZD8055] (top concentration tested 10000 nM) | 0 | 3.7 | 25.7 | 26.8 |
| N#Cc1ccc2[nH]c(O)c(-c3ccc(CN4CCOCC4)cn3)c2c1 [AZD-1080] (top concentration tested 10000 nM) | 0 | 2.84 | 1.14 | 0.74 |
| Cc1ncc(-c2ccnc(Nc3ccc(S(C)(=O)=O)cc3)n2)n1C(C)C [AZD-5438] (top concentration tested 10000 nM) | 5.66 | 13.8 | 9.27 | 15.4 |
| Cc1cc([C@@H](C)Nc2ccccc2C(=O)O)c2nc(N3CCOCC3)cc(=O)n2c1 [AZD-6482] (top concentration tested 2500 nM) | 0 | 0.89 | 1.08 | 1.97 |
| C[C@@H](Nc1cc(F)cc(F)c1)c1cc(C(=O)N(C)C)cc2c(=O)cc(N3CCOCC3)oc12 [AZD-8186] (top concentration tested 1000 nM) | 0 | 0 | 0 | 0.9 |
| Cc1cc(C(=O)NOCCO)c(Nc2ccc(I)cc2F)n(C)c1=O [AZD-8330] (top concentration tested 10000 nM) | 0 | 0 | 7.16 | 0.01 |
| CCN1CCN(Cc2ccc(Nc3ncc(F)c(-c4cc(F)c5nc(C)n(C(C)C)c5c4)n3)nc2)CC1 [Abemaciclib] (top concentration tested 2500 nM) | 0 | 0 | 0.98 | 0.4 |
| CN(C)Cc1c(C(=O)NCCOc2ccc(C(=O)NO)cc2)oc2ccccc12 [Abexinostat] (top concentration tested 10000 nM) | 10.7 | 17.5 | 22.9 | 22.3 |
| C[C@]12CC[C@H](O)CC1=CC[C@@H]1[C@@H]2CC[C@]2(C)C(c3cccnc3)=CC[C@@H]12 [Abiraterone] (top concentration tested 5000 nM) | 0 | 0 | 2.65 | 1.01 |
| CN(C)C/C=C/C(=O)Nc1cc2c(Nc3ccc(F)c(Cl)c3)ncnc2cc1O[C@H]1CCOC1 [Afatinib] (top concentration tested 1000 nM) | 0 | 0 | 0.98 | 1.06 |
| Cn1ncc(Cl)c1-c1cc(C(=O)N[C@H](CN)Cc2cccc(F)c2)sc1Cl [Afuresertib] (top concentration tested 1000 nM) | 0 | 0 | 6.74 | 9.38 |
| COc1cccc2c1C(=O)c1c(O)c3c(c(O)c1C2=O)C[C@@](O)(/C(CO)=N/NC(=O)CCCCCN1C(=O)C=CC1=O)C[C@@H]3O[C@H]1C[C@H](N)[C@H](O)[C@H](C)O1 [Aldoxorubicin] (top concentration tested 1000 nM) | 0 | 0 | 19.7 | 21.1 |

| Structure (SMILES) | drug sensitivity score (HEK293sieSTAT3(Y640F) [1]) | drug sensitivity score (HEK293sieSTAT3(wt) [2]) | drug sensitivity score (HEK293sieSTAT3(Y640F) [3]) | drug sensitivity score (HEK293sieSTAT3(wt) [4]) |
| --- | --- | --- | --- | --- |
| CCc1cc2c(cc1N1CCC(N3CCOCC3)CC1)C(C)(C)c1[nH]c3cc(C#N)ccc3c1C2=O [Alectinib] (top concentration tested 1000 nM) | 0 | 2.75 | 3.02 | 4.73 |
| COc1cc(Nc2ncc3c(n2)-c2ccc(Cl)cc2C(c2c(F)cccc2OC)=NC3)ccc1C(=O)O [Alisertib] (top concentration tested 10000 nM) | 0 | 8.65 | 9.16 | 12.1 |
| Oc1ncnc2[nH]ncc12 [Allopurinol] (top concentration tested 10000 nM) | 0 | 0 | 3.38 | 0.7 |
| Cc1nc(NC(=O)N2CCC[C@H]2C(N)=O)sc1-c1ccnc(C(C)(C)C(F)(F)F)c1 [Alpelisib] (top concentration tested 2500 nM) | 0 | 0 | 0.49 | 3.18 |
| CN(C)c1nc(N(C)C)nc(N(C)C)n1 [Altretamine] (top concentration tested 10000 nM) | 0 | 0 | 0 | 0 |
| CO[C@H]1/C=C\C=C(/C)C(=O)NC2=CC(=O)C(NCCN(C)C)=C(C[C@@H](C)C[C@H](OC)[C@H](O)[C@@H](C)/C=C(\C)[C@@H]1OC(N)=O)C2=O [Alvespimycin] (top concentration tested 1000 nM) | 7.84 | 16.2 | 14.9 | 16.6 |
| CN1CC[C@H](c2c(O)cc(O)c3c(=O)cc(-c4ccccc4Cl)oc23)[C@H](O)C1 [Alvocidib] (top concentration tested 10000 nM) | 9.09 | 17.1 | 20.1 | 24.4 |
| CCC1(c2ccc(N)cc2)CCC(=O)NC1=O (stereo not given) [Aminoglutethimide] (top concentration tested 10000 nM) | 0 | 0 | 0.16 | 0.06 |
| CN(C)CCN1C(=O)c2cccc3cc(N)cc(c23)C1=O [Amonafide] (top concentration tested 10000 nM) | 1.87 | 7.09 | 11.3 | 15 |
| COc1cc(NS(C)(=O)=O)ccc1Nc1c2ccccc2nc2ccccc12 [Amsacrine] (top concentration tested 10000 nM) | 6.68 | 11.1 | 25.2 | 26.9 |
| S=C(NCc1ccc2c(c1)OCO2)N1CCN(c2ncnc3c2oc2ccccc23)CC1 [Amuvatinib] (top concentration tested 10000 nM) | 3.08 | 8.39 | 5.74 | 5.71 |
| O=C1CN2Cc3c(ccc(Cl)c3Cl)N=C2N1 [Anagrelide] (top concentration tested 10000 nM) | 0.01 | 0.62 | 0.64 | 0.64 |
| CC(C)(C#N)c1cc(Cn2cncn2)cc(C(C)(C)C#N)c1 [Anastrozole] (top concentration tested 10000 nM) | 0 | 0 | 0.01 | 0 |
| N#CC1(c2ccc(NC(=O)c3cccnc3NCc3ccncc3)cc2)CCCC1 [Apatinib] (top concentration tested 10000 nM) | 0.2 | 0.3 | 0.11 | 0 |
| Cc1c(CN2CCN(C(=O)[C@H](C)O)CC2)sc2c(N3CCOCC3)nc(-c3cnc(N)nc3)nc12 [Apitolisib] (top concentration tested 10000 nM) | 0 | 8.67 | 23.8 | 19.8 |
| CC(C)c1c(C(=O)Nc2ccccc2)c(-c2ccccc2)c(-c2ccc(F)cc2)n1CC[C@@H](O)C[C@@H](O)CC(=O)O [Atorvastatin] (top concentration tested 10000 nM) | 9.06 | 6.93 | 6.61 | 8.29 |
| CC(=O)OC[C@H]1O[C@@H]([S-])[C@H](OC(C)=O)[C@@H](OC(C)=O)[C@@H]1OC(C)=O.CCP(CC)CC.[Au+] [Auranofin] (top concentration tested 2500 nM) | 6.36 | 9.45 | 9.25 | 8.14 |
